What was measured:
surinam grass = experiment: Test B pre/postemergence surinam grass; assay type: in vivo, Brachiaria decumbens
Procedure, shortened: (§1)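 Herbicidal effect was estimated by eye on a ten-point control scale after plants spent twelve to sixteen days in a greenhouse following soil or foliar treatment. Foliar sprays targeted plants at one to four leaves; all doses were formulated in a non-phytotoxic solvent with surfactant.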

wheat = experiment: Test B pre/postemergence wheat; assay type: in vivo, Triticum aestivum
Procedure, shortened: as §1

bedstraw = experiment: Test B pre/postemergence bedstraw; assay type: in vivo, Galium aparine; conditions: Postemergence
Procedure, shortened: as §1

corn = experiment: Test B pre/postemergence corn; assay type: in vivo, Zea mays
Procedure, shortened: as §1

bamyardgrass = experiment: Test B flood test barnyardgrass; assay type: in vivo, Echinochloa crus-galli
Procedure, shortened: (§2)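 Flood test on plants grown to the 2-leaf stage; treated plants kept in greenhouse twelve to sixteen days, then visually rated against controls on a 0 (no effect) to 10 (complete control) scale.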

rice = experiment: Test B flood test rice; assay type: in vivo, Oryza sativa
Procedure, shortened: as §2

velvetleaf = experiment: Test B pre/postemergence velvetleaf; assay type: in vivo, Abutilon theophrasti
Procedure, shortened: as §1

pigweed = experiment: Test B pre/postemergence pigweed; assay type: in vivo, Amaranthus retroflexus
Procedure, shortened: as §1

giant foxtail = experiment: Test B pre/postemergence giant foxtail; assay type: in vivo, Setaria faberii
Procedure, shortened: as §1

crabgrass = experiment: Test B pre/postemergence crabgrass; assay type: in vivo, Digitaria sanguinalis
Procedure, shortened: as §1

wild oat = experiment: Test B pre/postemergence wild oat; assay type: in vivo, Avena fatua
Procedure, shortened: as §1

smallflower flatsedge = experiment: Test B flood test smallflower flatsedge; assay type: in vivo, Cyperus difformis
Procedure, shortened: as §2

morningglory = experiment: Test B pre/postemergence morningglory; assay type: in vivo, Ipomoea hederacea
Procedure, shortened: as §1

soybean = experiment: Test B pre/postemergence soybean; assay type: in vivo, Glycine max
Procedure, shortened: as §1

blackgrass = experiment: Test B pre/postemergence blackgrass; assay type: in vivo, Alopecurus myosuroides
Procedure, shortened: as §1

cocklebur = experiment: Test B pre/postemergence cocklebur; assay type: in vivo, Xanthium strumarium
Procedure, shortened: as §1

[1] = Postemergence, Rate 62 g/ha, scale 0 to 10, 0 is no effect, 10 is complete control
[2] = Postemergence, Rate 125 g/ha, scale of 0 to 10 where 0 is no effect and 10 is complete control
[3] = Postemergence, Rate 250 g/ha, scale of 0 to 10, 0 is no effect, 10 is complete control
[4] = Preemergence, Rate 62 g/ha, scale of 0 to 10 where 0 is no effect and 10 is complete control
[5] = Preemergence, Rate 125 g/ha, scale of 0 to 10 where 0 is no effect and 10 is complete control
[6] = Preemergence, Rate 250 g/ha, scale 0 to 10 (0 no effect, 10 complete control)
[7] = Preemergence, Rate 500 g/ha, scale of 0 to 10 where 0 is no effect and 10 is complete control
[8] = Rate 500 g/ha, Postemergence, scale 0 to 10, 0 is no effect, 10 is complete control
[9] = Rate 62 g/ha, flood test species, Pre-emergence, visual evaluation after twelve to sixteen days
[10] = Rate 125 g/ha, under heading Pre-emergence, flood test species, visual evaluation after twelve to sixteen days
[11] = Rate 250 g/ha, Pre-emergence (flood test species), scale 0 to 10, 0 is no effect, 10 is complete control
[12] = Rate 500 g/ha, Pre-emergence section of Table B, 0 to 10 scale (0 no effect, 10 complete control)

CC(C)N(C(=O)n1oc(=O)n(CC2CCCCO2)c1=O)c1ccc(Cl)cc1 (stereo not shown) [Compound 660]
Plant response rating, B. signalgrass (surinam grass; [1]): 0 | Plant response rating, B. signalgrass (surinam grass; [2]): 0 | B. signalgrass plant response rating (surinam grass; [3]): 0 | B. signalgrass plant response rating (surinam grass; [4]): 0 | B. signalgrass plant response rating (surinam grass; [5]): 1 | Plant response rating, B. signalgrass (surinam grass; [6]): 4 | Plant response rating, B. signalgrass (surinam grass; [7]): 4 | B. signalgrass plant response rating (surinam grass; [8]): 5 | Plant response rating, Wheat (wheat; [1]): 0 | Wheat plant response rating (wheat; [2]): 0 | Wheat plant response rating (wheat; [4]): 0 | Wheat plant response rating (wheat; [5]): 0 | Plant response rating, Wheat (wheat; [6]): 0 | Plant response rating, Wheat (wheat; [7]): 0 | Wheat plant response rating (wheat; [8]): 0 | Plant response rating, Bedstraw (bedstraw; Rate 62 g/ha, scale 0 to 10, 0 is no effect, 10 is complete control): 0 | Bedstraw plant response rating (bedstraw; Rate 125 g/ha, scale of 0 to 10 where 0 is no effect and 10 is complete control): 0 | Bedstraw plant response rating (bedstraw; Rate 500 g/ha, scale 0 to 10, 0 is no effect, 10 is complete control): 0 | Plant response rating, Corn (corn; [1]): 0 | Corn plant response rating (corn; [2]): 0 | Corn plant response rating (corn; [3]): 0 | Corn plant response rating (corn; [4]): 0 | Corn plant response rating (corn; [5]): 0 | Plant response rating, Corn (corn; [6]): 0 | Plant response rating, Corn (corn; [7]): 0 | Corn plant response rating (corn; [8]): 2 | Plant response rating, Barnyardgrass (0 to 10 scale, 0 is no effect, 10 is complete control) (bamyardgrass; [9]): 0 | Barnyardgrass plant response rating (0 to 10 scale, 0 is no effect, 10 is complete control) (bamyardgrass; [10]): 0 | Barnyardgrass plant response rating (bamyardgrass; [11]): 0 | Barnyardgrass plant response rating (bamyardgrass; [12]): 0 | Plant response rating, Rice (0 to 10 scale, 0 is no effect, 10 is complete control) (rice; [9]): 0 | Rice plant response rating (0 to 10 scale, 0 is no effect, 10 is complete control) (rice; [10]): 0 | Rice plant response rating (rice; [11]): 0 | Rice plant response rating (rice; [12]): 0 | Plant response rating, Velvetleaf (velvetleaf; [1]): 0 | Velvetleaf plant response rating (velvetleaf; [2]): 2 | Velvetleaf plant response rating (velvetleaf; [4]): 0 | Velvetleaf plant response rating (velvetleaf; [5]): 0 | Plant response rating, Velvetleaf (velvetleaf; [6]): 0 | Plant response rating, Velvetleaf (velvetleaf; [7]): 0 | Velvetleaf plant response rating (velvetleaf; [8]): 3 | Plant response rating, Redroot pigweed (pigweed; [1]): 2 | Redroot pigweed plant response rating (pigweed; [2]): 2 | Redroot pigweed plant response rating (pigweed; [4]): 0 | Redroot pigweed plant response rating (pigweed; [5]): 5 | Plant response rating, Redroot pigweed (pigweed; [6]): 7 | Plant response rating, Redroot pigweed (pigweed; [7]): 10 | Redroot pigweed plant response rating (pigweed; [8]): 6 | Plant response rating, Giant foxtail (giant foxtail; [1]): 3 | Giant foxtail plant response rating (giant foxtail; [2]): 4 | Giant foxtail plant response rating (giant foxtail; [3]): 5 | Giant foxtail plant response rating (giant foxtail; [4]): 8 | Giant foxtail plant response rating (giant foxtail; [5]): 10 | Plant response rating, Giant foxtail (giant foxtail; [6]): 10 | Plant response rating, Giant foxtail (giant foxtail; [7]): 10 | Giant foxtail plant response rating (giant foxtail; [8]): 8 | Plant response rating, Crabgrass (crabgrass; [1]): 0 | Crabgrass plant response rating (crabgrass; [2]): 1 | Crabgrass plant response rating (crabgrass; [3]): 5 | Crabgrass plant response rating (crabgrass; [4]): 4 | Crabgrass plant response rating (crabgrass; [5]): 7 | Plant response rating, Crabgrass (crabgrass; [6]): 8 | Plant response rating, Crabgrass (crabgrass; [7]): 9 | Crabgrass plant response rating (crabgrass; [8]): 7 | Plant response rating, Wild oats (wild oat; [1]): 0 | Wild oats plant response rating (wild oat; [2]): 0 | Wild oats plant response rating (wild oat; [4]): 0 | Wild oats plant response rating (wild oat; [5]): 0 | Plant response rating, Wild oats (wild oat; [6]): 2 | Plant response rating, Wild oats (wild oat; [7]): 3 | Wild oats plant response rating (wild oat; [8]): 0 | Plant response rating, S. Flatsedge (0 to 10 scale, 0 is no effect, 10 is complete control) (smallflower flatsedge; [9]): 0 | S. Flatsedge plant response rating (0 to 10 scale, 0 is no effect, 10 is complete control) (smallflower flatsedge; [10]): 0 | S. Flatsedge plant response rating (smallflower flatsedge; [11]): 0 | S. Flatsedge plant response rating (smallflower flatsedge; [12]): 0 | Plant response rating, Morningglory (morningglory; [1]): 1 | Morningglory plant response rating (morningglory; [2]): 4 | Morningglory plant response rating (morningglory; [3]): 6 | Morningglory plant response rating (morningglory; [4]): 0 | Morningglory plant response rating (morningglory; [5]): 0 | Plant response rating, Morningglory (morningglory; [6]): 0 | Plant response rating, Morningglory (morningglory; [7]): 0 | Morningglory plant response rating (morningglory; [8]): 7 | Plant response rating, Soybean (soybean; [1]): 2 | Soybean plant response rating (soybean; [2]): 3 | Soybean plant response rating (soybean; [4]): 0 | Soybean plant response rating (soybean; [5]): 0 | Plant response rating, Soybean (soybean; [6]): 0 | Plant response rating, Soybean (soybean; [7]): 0 | Soybean plant response rating (soybean; [8]): 6 | Plant response rating, Blackgrass (blackgrass; [1]): 0 | Blackgrass plant response rating (blackgrass; [2]): 0 | Blackgrass plant response rating (blackgrass; [3]): 3 | Blackgrass plant response rating (blackgrass; [4]): 0 | Blackgrass plant response rating (blackgrass; [5]): 4 | Plant response rating, Blackgrass (blackgrass; [6]): 6 | Plant response rating, Blackgrass (blackgrass; [7]): 7 | Blackgrass plant response rating (blackgrass; [8]): 6 | Plant response rating, Cocklebur (cocklebur; [1]): 0 | Cocklebur plant response rating (cocklebur; [2]): 0 | Cocklebur plant response rating (cocklebur; [3]): 2 | Cocklebur plant response rating (cocklebur; [4]): 0 | Cocklebur plant response rating (cocklebur; [5]): 0 | Plant response rating, Cocklebur (cocklebur; [6]): 0 | Plant response rating, Cocklebur (cocklebur; [7]): 0 | Cocklebur plant response rating (cocklebur; [8]): 2
